# Measurements taken from patent publication US20020168365A1, “Method for modulating granzyme B uptake and for identifying modulators thereof” (priority 2000, published 2002).
# What was measured:
# Jurkat cells [1] = assay: TUNEL and annexin V apoptosis assays with grB and AD; format: cell-based, human; details: for TUNEL positive cells: 3 hr with pretreated grB and AD; for percentage of TUNEL positive cells after incubation with grB and AD / percentage of annexin V positive cells after incubation with grB and AD: with 25 mM monosaccharide
# Procedure: (§1) GrB was treated for 1 hr at 37° C. in a phosphate-free (saline) or a high-phosphate (64.5 mM Na2HPO4.7H2O, 21 mM KH2PO4) buffer with calf intestinal alkaline phosphatase (1-10 U), 20 nM of the 37 kDa catalytic subunit of recombinant protein phosphatase-1 (Bagu et al, 1997), or with vehicle control. Cells were then incubated with the treated grB at 4° C. for 30-60 min. For the TUNEL or annexin V assays, cells were then washed twice before incubation at 37° C. with AD.
# (§2) M6P and various other monosaccharides at different concentrations were added to cells for 15 min at 4° C. before the addition of labeled grB, or at room temperature before the addition of grB and AD.
# (§3) GrB was incubated with sCI-MPR at various concentrations in PBS/0.1% BSA for 30 min at 4° C. Subsequently, cells were incubated with grB/sCI-MPR for 30-60 min at 4° C. and washed twice, before analysis of binding, or before the addition of AD for TUNEL and annexin V analysis.
# For the in vitro killing assays, 10 pfu per cell of replication-deficient adenovirus (AD) were added subsequent to grB addition. Analysis of DNA fragmentation by TUNEL analysis has been described previously (Heibein et al., 1999). TUNEL materials (Roche Diagnostics) were used as per the manufacturer's instructions. Phosphatidylserine externalization was measured as previously described (Heibein et al., 1999) using annexin V-FITC (PharMingen). Percent specific TUNEL/annexin V positive cells was calculated as: [(% positive labeling cells with grB and AD-% positive labeling cells without grB and AD)/(100-% positive labeling cells without grB and AD)]×100.
# Cells were resuspended at 10^6 cells/ml in 0.1% BSA/DMEM. Adenovirus (10 PFU/cell) and granzyme B (grB) were added directly to the cell suspension. Cells were incubated at 37° C. for 3 h. For staurosporine killing, cells were resuspended at 10^6 cells/ml in their normal growth medium and staurosporine (2.5 μM) was added directly to the cell suspension. Cells were incubated at 37° C. for 2, 4 and 8 h.
# (§4) DNA fragmentation was monitored by flow cytometric analysis via the terminal deoxynucleotidyltransferase-mediated dUTP-biotin nick end labeling (TUNEL) method. Flow cytometric analysis was performed on a Becton Dickinson FACScanθ flow cytometer equipped with an argon-ion laser with 15 mW of excitation at 488 nm. Emission wavelengths were detected through the FL1 channel. Data were acquired on 10,000 cells per sample with light scatter signals at linear gain and fluorescence signals at logarithmic gain. Percent specific TUNEL positive cells was calculated as follows: [(% positive labeling cells with grB and AD−% positive labeling cells without grB and AD)/(AD−% positive labeling cells without grB and AD)]×100.
# as §4, with “Phosphatidylserine externalization” for “DNA fragmentation”, “monitored using the ApoAlertθ annexin V apoptosis kit (Clontech) according to the protocol provided” for “monitored”, “by” for “by flow cytometric analysis via”, “manufacturer.” for “terminal deoxynucleotidyltransferase-mediated dUTP-biotin nick end labeling (TUNEL) method.”, “Annexin V” for “TUNEL”
# Jurkat cells [2] = assay: GrB binding assay (flow cytometry, labeled grB at 4° C.); parameters: species or system human; details: for effect on grB binding: monosaccharide with labeled grB, 4° C. (FIG. 3A)
# Procedure: Cells (1-2×10^5) were washed twice and resuspended in buffer before the addition of grB-biotin or -OG in a final volume of 20 μl for a 30-60 min incubation and washed again twice. In the case of grB-biotin, cells were then incubated with streptavidin-cychrome for 20 min and washed twice. Unless otherwise indicated, ˜25 ng grB-biotin or -OG was used to label cells. All steps of the assay were carried out at 4° C. to prevent intracellular uptake of grB. PBS/0.1% BSA buffer was used throughout the procedure. In some cases, results are presented as the relative MFI, which represents the MFI of the grB-labeled population minus the MFI of the unlabeled population.
# as §1, §2, §3
# CI-MPR^+ cells = assay: GrB uptake assay (confocal microscopy, grB-OG at 37° C.); format: cell-based, murine L cells transfected with human CI-MPR; details: 20 mM M6P
# Procedure: Cells on coverslips were incubated for 20 min at 37° C. with DMEM/0.1% BSA containing 25 ng grB-OG that was untreated, mock-treated, or alkaline phosphatase-treated as described above. For the M6P inhibition studies, cells were treated with 20 mM M6P in DMEM/0.1% BSA for 10 min at 37° C., before the addition of grB-OG, as above. Cells were then washed twice with PBS/0.1% BSA, fixed with 2% paraformaldehyde in PBS, and allowed to dry briefly before the coverslips were mounted and examined by confocal microscopy. Imaging was performed with a Zeiss Axiovertθ 100M LSM510 laser scan microscope and analyzed using LSM510 software.
# MPRs in all cell lines = assay: GrB-OG binding after M6P preincubation (Example 2, FIG. 8); details: 20 mM M6P, 37° C., 15 minutes prior to grB-OG
# Procedure: Cells (1×10^5) were washed twice and resuspended in buffer before addition of grB-biotin or grB-OG in a final volume of 20 μl for a 30-60 min incubation and washed again twice. In the case of grB-biotin, cells were then incubated with streptavidin-cychrome for 20 min and washed twice. In order to measure cell surface binding, all steps of the binding assay were carried out at 4° C. to prevent intracellular uptake of grB. 0.1% BSA/PBS buffer was used throughout the procedure. All steps of the grB uptake assay were carried out at 37° C. Flow cytometric analysis was performed on a Becton Dickinson FACScanθ flow cytometer equipped with an argon-ion laser with 15 mW of excitation at 488 nm. Emission wavelengths were detected through the FL1 and FL3 channel for grB-OG and grB-biotin, respectively. Data were acquired on 10,000 cells per sample with light scatter signals at linear gain and fluorescence signals at logarithmic gain. Results are presented as the relative MFI, which represents the MFI of the grB-labeled population minus the MFI of the unlabeled population. M6P at 20 mM was added to cells for 15 min at 37° C. before the addition of labeled grB.
# [3] = test system: AD containing a β-galactosidase insert; assay: Infection of AD containing a β-galactosidase insert; format: cell-based
# [4] = test system: MPR^− and CI-MPR^+ target cells; assay: CTL killing assays (^3H-thymidine release and ^51Cr-release); format: cell-based, murine; details: Mus musculus; CTL effectors with targets in the presence of M6P (data not shown); read-out: half-maximal inhibition of target cell DNA fragmentation
# Procedure: The ^51Cr- (lysis) and ^3H-thymidine (DNA fragmentation) release assays have been previously described (Darmon et al., 1996). Target cells (1×10^4 cells/well for the ^51Cr-release assay and 5×10^4 cells/well for the ^3H-thymidine-release assay) were incubated with CTL at various E:T ratios (effector:target) in the presence or absence of blocking murine- (1 μg/ml) or human- (200 ng/ml) anti-Fas mAb. Data from one experiment represent the mean of data from triplicate samples. Typically, spontaneous ^51Cr-release and DNA fragmentation was less than 10% and 5%, respectively. Percent specific lysis and DNA fragmentation was calculated as: [(sample cpm−spontaneous cpm)/(total cpm−spontaneous cpm)]×100.
# [5] = molecular target: cell surface MPR on Jurkat cells; assay: cell-based or functional assay
# [6] = preincubation of grB with soluble CI-MPR, Jurkat cells (data not shown)
molecule,measurement,setting,value
dephosphorylated grB: grB treated with calf intestinal alkaline phosphatase in phosphate-free buffer,TUNEL positive cells,Jurkat cells [1]; Jurkat cells,Less than 5%
grB pretreated with alkaline phosphatase in phosphate-containing buffer: control grB treated with phosphatase in a phosphate-containing buffer to inhibit phosphatase activity,TUNEL positive cells,Jurkat cells [1]; Jurkat cells,50%
"O=C[C@@H](O)[C@@H](O)[C@H](O)[C@H](O)CO [D-mannose, reference compound]",percentage of TUNEL positive cells after incubation with grB and AD,"Jurkat cells [1]; 3 hr, Jurkat cells",52%
same,percentage of annexin V positive cells after incubation with grB and AD,"Jurkat cells [1]; 3 hr, Jurkat cells",32%
same,effect on grB binding,Jurkat cells [2],no effect
"soluble CI-MPR: Human soluble cation-independent mannose 6-phosphate receptor (Valenzano et al., 1995)",concentration that markedly reduced in a dose-dependent manner grB/AD-mediated apoptosis,Jurkat cells [1]; [6],≥ 100 µg/mL
same,concentration that markedly reduced in a dose-dependent manner the cell surface binding of grB,Jurkat cells [2]; [6],≥ 100 µg/mL
"O=C[C@@H](O)[C@@H](O)[C@H](O)[C@H](O)COP(=O)(O)O [M6P, mannose 6-phosphate]",uptake of grB (grB detected within the cells),CI-MPR^+ cells,essentially no grB could be detected within the cells
same,concentration that markedly reduced in a dose-dependent manner the percentage of TUNEL or annexin V positive cells,"Jurkat cells [1]; Jurkat cells, grB and AD, 3 hr",≥ 200 µM
same,binding of grB to the MPRs,MPRs in all cell lines,significantly reduced binding
same,effect on infection of AD containing a β-galactosidase insert,[3],No effect
same,IC50,[4],> 25000 µM
same,binding of grB to Jurkat cells,"Jurkat cells [2]; M6P at 20 mM, 4° C.",considerably reduced binding
same,IC50,"Jurkat cells [2]; labeled grB, 4° C., flow cytometry, Jurkat cells (FIG. 3A), read-out: half-maximal inhibition of binding of grB",1000 µM
"O=C[C@H](O)[C@@H](O)[C@H](O)[C@H](O)CO [D-glucose, reference compound]",percentage of TUNEL positive cells after incubation with grB and AD,"Jurkat cells [1]; 3 hr, Jurkat cells",66%
same,percentage of annexin V positive cells after incubation with grB and AD,"Jurkat cells [1]; 3 hr, Jurkat cells",40%
same,effect on grB binding,Jurkat cells [2],no effect
"O=C[C@H](O)[C@@H](O)[C@H](O)[C@H](O)COP(=O)(O)O [D-glucose 6-phosphate, reference compound]",percentage of TUNEL positive cells after incubation with grB and AD,"Jurkat cells [1]; 3 hr, Jurkat cells",60%
same,percentage of annexin V positive cells after incubation with grB and AD,"Jurkat cells [1]; 3 hr, Jurkat cells",41%
same,concentrations at which inhibitory effect on grB binding was evident,"Jurkat cells [2]; labeled grB, 4° C.",above 25 mM
same,effect on grB binding,Jurkat cells [2],slight inhibitory effect
human granzyme B purified from the cytolytic granules of YT-Indy cells (from UniProt P10144 21-247) (enzyme),TUNEL positive Jurkat cells after 3 hr with grB (pretreated with alkaline phosphatase in phosphate-containing buffer) and AD,[5],50%
dephosphorylated human granzyme B (treated with calf intestinal alkaline phosphatase in phosphate-free buffer) (from UniProt P10144 21-247) (enzyme),TUNEL positive Jurkat cells after 3 hr with phosphatase-treated grB and AD,[5],< 5%
